# Assay results as given in PubChem BioAssay (NCI).
# “And” between values parts separate entries of the source, which are not always exact repeats. Equal values may be shown once.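 Results reflect a 48-hour exposure of cells in 96-well plates to compound at five concentrations. Here, GI50 denotes the concentration required for 50% inhibition of growth. TGI denotes the concentration required for complete inhibition of growth.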
# Experiments:
# Assay in all cases: DTP human tumour cell line panel, 48 h
# NCI-H23 lung = system: NCI-H23 lung
# SK-MEL-28 melanoma = system: SK-MEL-28 melanoma
# NCI-H226 lung = system: NCI-H226 lung
# COLO 205 colon = system: COLO 205 colon
# SNB-19 CNS = system: SNB-19 CNS
# TK-10 renal = system: TK-10 renal
# K-562 leukemia = system: K-562 leukemia
# MOLT-4 leukemia = system: MOLT-4 leukemia
# MDA-MB-435 = system: MDA-MB-435
# A549 NSCLC = system: A549 NSCLC
Compound,GI50 (NCI-H23 lung),TGI (NCI-H23 lung),GI50 (SK-MEL-28 melanoma),TGI (SK-MEL-28 melanoma),GI50 (NCI-H226 lung),TGI (NCI-H226 lung),GI50 (COLO 205 colon),TGI (COLO 205 colon),GI50 (SNB-19 CNS),TGI (SNB-19 CNS),GI50 (TK-10 renal),TGI (TK-10 renal),GI50 (K-562 leukemia),TGI (K-562 leukemia),GI50 (MOLT-4 leukemia),TGI (MOLT-4 leukemia),GI50 (MDA-MB-435),TGI (MDA-MB-435),GI50 (A549 NSCLC),TGI (A549 NSCLC)
CS(=O)(=O)Nc1cc(-c2ccc3ncnc(Nc4c(Cl)ccc5c4OCO5)c3c2)cnc1Cl,0.25 µM,4 µM,0.12 µM,1.03 µM,0.309 µM,3.54 µM,0.263 µM,1.35 µM,0.244 µM,3.42 µM,0.047 µM,0.888 µM,0.484 µM,> 48.4 µM,0.165 µM,0.76 µM,0.251 µM,1.63 µM,0.255 µM,1.94 µM
C[C@@]12CCC[C@@](C)(C(=O)O)C1CC[C@]13CC(=O)[C@](CO)(C1)[C@@H](O)CC32 (stereo partly drawn),> 100 µM,> 100 µM,> 100 µM,> 100 µM,> 100 µM,> 100 µM,> 100 µM,> 100 µM,> 100 µM,> 100 µM,> 100 µM,> 100 µM,> 100 µM,> 100 µM,> 100 µM,> 100 µM,> 100 µM,> 100 µM,> 100 µM,> 100 µM
O=S(=O)(Nc1ccc(Cl)cc1Cl)c1ccc(-c2cnc(C3CC3)o2)cc1,1.4 µM,55.5 µM,3.28 µM,> 78.8 µM,1.37 µM,31.1 µM,1.13 µM,11.1 µM,0.538 µM,> 100 µM,5.03 µM,79.6 µM,0.382 µM,> 100 µM,0.692 µM,> 100 µM,0.182 µM,0.727 µM,1.02 µM,> 100 µM
CC1(Br)Cc2ccccc2C1=O (stereo not drawn),1.88 µM,5.38 µM,–,7.68 µM,–,5.93 µM,–,17.5 µM,–,81.8 µM,–,29.8 µM,0.571 µM,–,0.423 µM,9.91 µM and 3.4 µM,2.14 µM,12.4 µM,–,32.4 µM
C[C@H](Nc1cc(Cl)nc2c1cnn2[C@@H]1O[C@H](COP(=O)(O)CP(=O)(O)O)[C@@H](O)[C@H]1O)c1ccccc1F,> 100 µM,> 100 µM,> 100 µM,> 100 µM,> 100 µM,> 100 µM,> 100 µM,> 100 µM,> 100 µM,> 100 µM,> 100 µM,> 100 µM,> 100 µM,> 100 µM,> 100 µM,> 100 µM,> 100 µM,> 100 µM,> 100 µM,> 100 µM
